In assay [1] the test system is Erysiphe graminis f. sp. tritici. Put plainly: Erysiphe graminis f. sp. tritici (wheat powdery mildew), wheat leaf segments, preventive. To be noted: Blumeria graminis, foliar, 168 h, 7 dpi, compared to untreated control. It is filed as in vivo. As to the method:
Wheat leaf segments are placed on agar in multiwell plates (24-well format) and sprayed with test solutions. After drying, the leaf disks are inoculated with spores of the fungus. After appropriate incubation the activity of a compound is assessed 7 dpi (days post inoculation) as preventive fungicidal activity.

The subject of a further assay is Monographella nivalis. Put plainly: Monographella nivalis syn. Microdochium nivale (snow mould, foot rot of cereals), liquid culture growth inhibition. Format: cell-based. The settings on record: nutrient broth (PDB), 72 hrs, photometric at 620 nm, compared to untreated control. As to the method:
Conidia of the fungus from cryogenic storage were directly mixed into nutrient broth (PDB potato dextrose broth). A DMSO solution of the test compounds was placed into a microtiter plate (96-well format) and the nutrient broth containing the fungal spores was added to it. The test plates were incubated at 24° C. and the inhibition of growth was determined photometrically after 72 hrs at 620 nm. […] Cercospora arachidicola (Brown Leaf Spot of Peanut): […]

Another assay has as its system Mycosphaerella arachidis. The assay can be described thus: Mycosphaerella arachidis syn. Cercospora arachidicola (brown leaf spot of peanut), liquid culture growth inhibition. Format: cell-based. To be noted: nutrient broth (PDB), approximately 5-6 days, photometric at 620 nm, compared to untreated control. As to the method:
Conidia of the fungus from cryogenic storage were directly mixed into nutrient broth (PDB potato dextrose broth). A DMSO solution of the test compounds was placed into a microtiter plate (96-well format) and the nutrient broth containing the fungal spores was added to it. The test plates were incubated at 24° C. and the inhibition of growth was determined photometrically after approximately 5-6 […] at 620 nm.

The test system of the next assay is Phytophthora infestans. The assay can be described thus: whole plant or invertebrate. The settings on record: in Solanum lycopersicum, foliar, 96 h, read-out: control of Phytophthora infestans. It is filed as in vivo.
A further assay relates to Plasmopara viticola. The assay can be described thus: Plasmopara viticola (downy mildew of grapevine), grape vine leaf disks, preventive. Format: in vivo. The settings on record: foliar, 168 h, 7 dpi, compared to untreated control. As to the method: Grape vine leaf disks are placed on agar in multiwell plates (24-well format) and sprayed with test solutions. After drying, the leaf disks are inoculated with a spore suspension of the fungus. After appropriate incubation the activity of a compound is assessed 7 dpi (days after inoculation) as preventive fungicidal activity.

Assay [2] has as its system Puccinia recondita f. sp. tritici. The assay can be described thus: Puccinia recondita (brown rust), preventative, wheat leaf segments. Format: in vivo. The settings on record: foliar, 192 h, 8 dpi, compared to untreated control. As to the method: Wheat leaf segments are placed on agar in multiwell plates (24-well format) and sprayed with test solutions. After drying, the leaf segments are inoculated with a spore suspension of the fungus. After appropriate incubation the activity of a compound is assessed 8 dpi (days after inoculation) as preventative fungicidal activity.

In a further assay the test system is Glomerella lagenarium. Put plainly: Glomerella lagenarium syn. Colletotrichum lagenarium (anthracnose of cucurbits), liquid culture growth inhibition. Format: cell-based. To be noted: Colletotrichum orbiculare, nutrient broth (PDB), 72 hrs, photometric at 620 nm, compared to untreated control. As to the method: Glomerella lagenarium Syn. Colletotrichum lagenarium (Anthracnose of Cucurbits): Conidia of the fungus from cryogenic storage were directly mixed into nutrient broth (PDB potato dextrose broth). A DMSO solution of the test compounds was placed into a microtiter plate (96-well format) and the nutrient broth containing the fungal spores was added to it. The test plates were incubated at 24° C. and the inhibition of growth was determined photometrically after 72 hrs at 620 nm. […]

Assay [3] deals with Puccinia recondita f. sp. tritici. Put plainly: Puccinia recondita (brown rust), curative, wheat leaf segments. Format: in vivo. The settings on record: foliar, 192 h, sprayed 1 day after inoculation, 8 dpi, compared to untreated control. As to the method: Wheat leaf segments are placed on agar in multiwell plates (24-well format). The leaf segments are inoculated with a spore suspension of the fungus and sprayed with test solutions 1 day after inoculation. After appropriate incubation the activity of a compound is assessed 8 dpi (days after inoculation) as curative fungicidal activity.

A further assay relates to Pyricularia oryzae. The assay can be described thus: whole plant or invertebrate. It is filed as in vivo. To be noted: foliar, 120 h, read-out: control of Pyricularia oryzae.
The next assay deals with Alternaria solani. The assay can be described thus: Alternaria solani (early blight of tomatoes), tomato leaf disks. The settings on record: foliar, inoculated 2 days after application, compared to untreated control. Format: in vivo. As to the method:
Alternaria solani (Early Blight of Tomatoes) Tomato leaf disks are placed on agar in multiwell plates (24-well format) and sprayed with the formulated test compound diluted in water. The leaf disks are inoculated with a spore suspension of the fungus 2 days after application. The inoculated leaf disks are incubated at 23° C./21° C.

The subject of assay [4] is Phakopsora pachyrhizi. Put plainly: Phakopsora pachyrhizi (soybean rust), soybean leaf disks, preventive. Format: in vivo. To be noted: foliar, 288 h, approx. 12 dpi, compared to untreated control. As to the method: Soybean leaf disks are placed on agar in multiwell plates (24-well format) and sprayed with test solutions. After drying, the leaf disks are inoculated with a spore suspension of the fungus. After appropriate incubation the activity of a compound is assessed approx. 12 dpi (days after inoculation) as preventive fungicidal activity.

Another assay deals with Puccinia recondita. Put plainly: Example C: comparative activity against Puccinia recondita (brown rust), curative, wheat leaf segments. It is filed as in vivo. The settings on record: 8 dpi. As to the method:
Method; Wheat leaf segments are placed on agar in multiwell plates (24-well format). The leaf segments are inoculated with a spore suspension of the fungus and sprayed with test solutions 1 day after inoculation. After appropriate incubation the activity of a compound is assessed 8 dpi (days after inoculation) as curative fungicidal activity. The data are presented as the percentage of disease control of each compound for the biological tests and testing rates described below in table H.

The test system of assay [5] is Phakopsora pachyrhizi. The assay can be described thus: Example D: comparative activity against Phakopsora pachyrhizi (soybean rust), soybean plants sprayed, leaf disks cut from treated plants. Format: in vivo. To be noted: 0.1% OCHIMA, leaf disks cut one day after application, approx. 12 dpi. As to the method:
Method: Soybean plants are sprayed in a spray chamber with formulated DMSO compound solutions which are diluted to the appropriate concentration with 0.1% […] (adjuvant comprising polyethoxylated sorbitol hexaoleate and tris(2-ethylhexyl) phosphate) just before spraying. Leaf disks are cut from treated plants and placed on agar into 24-well plates one day after application. After, the leaf disks are inoculated with a spore suspension of the fungus. After appropriate incubation the activity of a compound is assessed approx. 12 dpi (days after inoculation) as preventive fungicidal activity. The data are presented as the percentage of disease control of each compound for the biological tests and testing rates described below in Table 1.

Assay [6] deals with Phakopsora pachyrhizi. Put plainly: Example E: comparative activity against Phakopsora pachyrhizi (soybean rust), soybean leaf disks sprayed. Format: in vivo. To be noted: 0.025% Tween20, approx. 12 dpi. As to the method:
Method: Compounds to be tested are prepared as DMSO solutions which are diluted to the appropriate concentration with 0.025% Tween20 just before spraying. Soybean leaf disks are placed on agar in multiwell plates (24-well format) and sprayed with test solutions. After drying, the leaf disks are inoculated with a spore suspension of the fungus. After appropriate incubation the activity of a compound is assessed approx. 12 dpi (days after inoculation) as preventive fungicidal activity. The data are presented as the percentage of disease control of each compound for the biological tests and testing rates described below in Table J.

From US12262710B2, “Fungicidal compounds” (SYNGENTA CROP PROTECTION AG, priority 2019, dated 2025) come the findings set out here.

With `CO/C=C(\Oc1cc(C2CCC(C)(C)CC2)ccc1C)C(=O)OC` [E.2, methyl (Z)-2-[5-(4,4-dimethylcyclohexyl)-2-methyl-phenoxy]-3-methoxy-prop-2-enoate], the pest or weed control at 200 ppm (in assay [1]; with Phytophthora infestans; in the assay on Plasmopara viticola; in assay [2]) was no less than 80% each time. The inhibition of growth at 20 ppm in the assay on Monographella nivalis and with Mycosphaerella arachidis was no less than 80% in each case.
Turning to `CO/C=C(\Oc1cc(C2CC2C2CC2)ccc1C)C(=O)OC` (stereo not shown) [E.7, methyl (Z)-2-[5-(2-cyclopropylcyclopropyl)-2-methyl-phenoxy]-3-methoxy-prop-2-enoate], the inhibition of growth at 20 ppm in the assay with Glomerella lagenarium, with Monographella nivalis and with Mycosphaerella arachidis was no less than 80% each time. Moreover, the pest or weed control at 200 ppm (in assay [1]; in the assay with Phytophthora infestans; in the assay on Plasmopara viticola; in [3]; in assay [2]; with Pyricularia oryzae) was no less than 80% throughout.
For `CO/C=C(\Oc1cc(C2CCCCC2)ccc1Cl)C(=O)OC` [E.9, methyl (Z)-2-(2-chloro-5-cyclohexyl-phenoxy)-3-methoxy-prop-2-enoate], the inhibition of growth at 20 ppm in the assay on Glomerella lagenarium, in the assay with Monographella nivalis and with Mycosphaerella arachidis was no less than 80% in each case. For the same compound, the pest or weed control at 200 ppm (in assay [1]; in the assay on Phytophthora infestans; in the assay with Plasmopara viticola; in assay [2]) was no less than 80% each time.
As to `CO/C=C(\Oc1cc(C2CCCC2)ccc1C)C(=O)OC` [E.13, methyl (Z)-2-(5-cyclopentyl-2-methyl-phenoxy)-3-methoxy-prop-2-enoate], the pest or weed control at 200 ppm (in the assay on Alternaria solani; in assay [1]; in the assay with Phytophthora infestans; in the assay on Plasmopara viticola; in [3]; in assay [2]) was no less than 80% throughout. In the assay on Pyricularia oryzae, the pest or weed control at 200 ppm is no less than 80%. Further, the inhibition of growth at 20 ppm in the assay on Glomerella lagenarium, in the assay with Monographella nivalis and in the assay with Mycosphaerella arachidis was no less than 80% throughout. The pest or weed control at 60 ppm in the assay with Phakopsora pachyrhizi [4] is no less than 70%. The “control (%) Puccinia recondita (Brown rust), curative” value is 0% in the assay with Puccinia recondita (20 ppm), 0% with Puccinia recondita (60 ppm) and 100% in the assay with Puccinia recondita (200 ppm). The “control (%) Phakopsora pachyrhizi (Soybean rust)” value in the assay with Phakopsora pachyrhizi [5] (6 ppm) stood at 0%; with Phakopsora pachyrhizi [5] (20 ppm), 4%; in the assay with Phakopsora pachyrhizi [5] (60 ppm) it was 46%; in the assay on Phakopsora pachyrhizi [5] (200 ppm), 98%; in the assay with Phakopsora pachyrhizi [6] (0.6 ppm), 10%; with Phakopsora pachyrhizi [6] (2 ppm), 10%. Moreover, the “control (%) Phakopsora pachyrhizi (Soybean rust)” value in the assay with Phakopsora pachyrhizi [6] (6 ppm) worked out at 60%; with Phakopsora pachyrhizi [6] (20 ppm), 100%; in the assay on Phakopsora pachyrhizi [6] (60 ppm), 100%; in the assay with Phakopsora pachyrhizi [6] (200 ppm), 100%.
For `CO/C=C(\Oc1cc(C2CCCCC2)c(F)cc1C)C(=O)OC` [E.16, methyl (Z)-2-(5-cyclohexy1-4-fluoro-2-methyl-phenoxy)-3-methoxy-prop-2-enoate], the pest or weed control at 200 ppm (in the assay with Alternaria solani; in assay [1]; in the assay with Phytophthora infestans; with Plasmopara viticola; in assay [3]; in [2]) was no less than 80% each time. The pest or weed control at 200 ppm in the assay with Pyricularia oryzae was no less than 80%. Moreover, the inhibition of growth at 20 ppm with Glomerella lagenarium, in the assay with Monographella nivalis and in the assay on Mycosphaerella arachidis was no less than 80% in each case.
Regarding `CO/C=C(\Oc1cc(C2CCC(C(F)F)CC2)ccc1C)C(=O)OC` (stereo not shown) [E.22, methyl (Z)-2-[5-[4-(difluoromethyl)cyclohexyl]-2-methyl-phenoxy]-3-methoxy-prop-2-enoate], the pest or weed control at 200 ppm (in the assay with Alternaria solani; in assay [1]; in the assay on Phytophthora infestans; in the assay with Plasmopara viticola; in [2]) was no less than 80% in each case. Also, the inhibition of growth at 20 ppm in the assay on Glomerella lagenarium, in the assay on Monographella nivalis and with Mycosphaerella arachidis was no less than 80% in each case.

By inhibition of growth is commonly meant the relative decrease from the control value, in per cent.
